The text below walks through data of patent publication US20210244712A1, “METHODS FOR TREATING PATIENTS WITH CANCER HAVING DEFECTS IN CYCLIN D REGULATION” (NysnoBio Ireland DAC, priority 2018, published 2021).

Holding throughout (experiment): Cell proliferation assay
Common to all, as to assay type: cell-based

The test system of assay [1] is HCC1954. To be noted: Homo sapiens, 72 hrs, read-out: Cell Viability: IC50. In outline:
(§1)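 Percentage inhibition relative to DMSO-treated cells was derived from acid phosphatase activity (405/620 nm). Cells had been plated overnight before 72 hrs of incubation with compound at several concentrations, tested in triplicate.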

In assay [2] the test system is OVTOKO. The following applies: 72 hrs, read-out: Cell Viability: IC50. The essentials:
as §1

The test system of assay [3] is NC-H196. To be noted: 72 hrs, read-out: Cell Viability: IC50. The essentials: as §1
Assay [4] has as its system JIMT-1. To be noted: Homo sapiens, 72 hrs, read-out: Cell Viability: IC50. The essentials: as §1
Assay [5] deals with T-47D. To be noted: Homo sapiens, T47D, 72 hrs, read-out: Cell Viability: IC50. The essentials:
as §1

Assay [6] deals with RKO. To be noted: Homo sapiens, 72 hrs, read-out: Cell Viability: IC50. The essentials: as §1
The subject of assay [7] is MDA-MB-231. To be noted: Homo sapiens, 72 hrs, read-out: Cell Viability: IC50. The essentials:
as §1

For assay [8], the system named is NCl-H1703. The following applies: 72 hrs, read-out: Cell Viability: IC50. In outline:
as §1

Assay [9] deals with ZR-75-1. The following applies: Homo sapiens, 72 hrs, read-out: Cell Viability: IC50. In outline:
as §1

Assay [10] relates to Calu-6. The following applies: Homo sapiens, 72 hrs, read-out: Cell Viability: IC50. In outline: as §1
The subject of assay [11] is MDA-MB-436. To be noted: Homo sapiens, 72 hrs, read-out: Cell Viability: IC50. The essentials:
as §1

The test system of assay [12] is SK-CO-1. To be noted: Homo sapiens, 72 hrs, read-out: Cell Viability: IC50. The essentials: as §1
The subject of assay [13] is LS174T. To be noted: Homo sapiens, 72 hrs, read-out: Cell Viability: IC50. The essentials:
as §1

Assay [14] relates to SW480. The following applies: Homo sapiens, 72 hrs, read-out: Cell Viability: IC50. In outline: as §1
In assay [15] the test system is OVSAHO. The following applies: Homo sapiens, 72 hrs, read-out: Cell Viability: IC50. In outline: as §1
Assay [16] concerns NCl-H226. The following applies: 72 hrs, read-out: Cell Viability: IC50. The essentials: as §1
Assay [17] deals with BT-474. To be noted: Homo sapiens, 72 hrs, read-out: Cell Viability: IC50. The essentials: as §1
Assay [18] concerns Hutu 80. The following applies: Homo sapiens, HuTu80, 72 hrs, read-out: Cell Viability: IC50. In outline:
as §1

For assay [19], the system named is MDA-MB-453. The following applies: Homo sapiens, 72 hrs, read-out: Cell Viability: IC50. In outline: as §1
Assay [20] concerns SK-BR-3. The following applies: Homo sapiens, 72 hrs, read-out: Cell Viability: IC50. In outline:
as §1

Assay [21] deals with OVISE. To be noted: 72 hrs, read-out: Cell Viability: IC50. In outline: as §1
The subject of assay [22] is HCC38. The following applies: Homo sapiens, 72 hrs, read-out: Cell Viability: IC50. The essentials:
as §1

In assay [23] the test system is SW948. To be noted: Homo sapiens, 72 hrs, read-out: Cell Viability: IC50. The essentials:
as §1

Assay [24] has as its system HCT-8. The following applies: Homo sapiens, 72 hrs, read-out: Cell Viability: IC50. The essentials:
as §1

The test system of assay [25] is MSTO-211H. To be noted: Homo sapiens, 72 hrs, read-out: Cell Viability: IC50. The essentials:
as §1

The subject of assay [26] is SW527. The following applies: 72 hrs, read-out: Cell Viability: IC50. In outline:
as §1

Assay [27] concerns DLD-1. To be noted: Homo sapiens, 72 hrs, read-out: Cell Viability: IC50. In outline: as §1
Assay [28] relates to MDA-MB-157. To be noted: Homo sapiens, 72 hrs, read-out: Cell Viability: IC50. In outline:
as §1

Assay [29] has as its system SK-LU-1. To be noted: Homo sapiens, 72 hrs, read-out: Cell Viability: IC50. In outline: as §1
Assay [30] concerns Caco-2. To be noted: Homo sapiens, 72 hrs, read-out: Cell Viability: IC50. In outline: as §1
In assay [31] the test system is Mino. To be noted: Homo sapiens; Mantle Cell Mino; overexpression of Cyclin D. The essentials: as §1
For assay [32], the system named is SK-OV-3. The following applies: Homo sapiens, Table 7a, Ovarian (SKOV3). The essentials:
as §1

As usually defined, the IC50 is the midpoint of a concentration-inhibition curve. Take `Cc1ccccc1C(=O)Nc1nc(NC(=O)c2ccccc2C)n(-c2ccccc2)n1` [Compound F, 2-methyl-N-[5-[(2-methylbenzoyl)amino]-1-phenyl-1,2,4-triazol-3-yl]benzamide]: the half-maximal inhibitory concentration (IC50) in [1] was 3.69 µM; in [2] it was greater than 10 µM; in [3] it was 2.83 µM; in [4], 8.49 µM; in [5], 7.37 µM; in assay [6], 4.12 µM. In addition, the 50% inhibitory concentration (IC50) in [7] was 6.98 µM; in [8], 1.85 µM; in [9] it was 3.87 µM; in assay [10] it was 1.89 µM; in assay [11], 6.55 µM; in assay [12], 0.98 µM. Moreover, the concentration for half-maximal inhibition (IC50) in [13] was 2.37 µM; in [14], 3.49 µM; in assay [15] it was 6.53 µM; in assay [16] it was 7.33 µM; in assay [17], 3.03 µM; in assay [18], 1.63 µM. Moreover, the IC50 in [19] was found to be 3.04 µM; in [20], 3.05 µM; in [21] it was 7.33 µM; in assay [22], 5.77 µM; in [23] it was 8.37 µM; in [24], 4.74 µM. The IC50 in [25] is 2.31 µM; in [26], 6.69 µM; in [27], 7.49 µM; in assay [28], 5.82 µM; in assay [29], 5.73 µM; in [30], greater than 10 µM.
By EC50 is commonly meant the concentration at which the effect is half-maximal. High values mean a need for much substance, low ones an effect from little substance. In assay [31], `Cc1ccccc1C(=O)Nc1nc(NC(=O)c2ccccc2C)n(-c2ccc(OC(F)(F)F)cc2)n1` [Compound 42, N,N′-(1-(4-(trifluoromethoxy)phenyl)-1H-1,2,4-triazole-3,5-diyl)bis(2-methylbenzamide)] had an IC50 of 0.345 µM. In assay [32], this compound returned an EC50 of 0.376 µM.
